The values below come from ChEMBL document CHEMBL5505963, “Novel berberine derivatives as p300 histone acetyltransferase inhibitors in combination treatment for breast cancer” (Eur J Med Chem, 2024).

The target of assay [1] is Histone acetyltransferase p300 (Homo sapiens, UniProt Q09472). Description: Inhibition of p300 HAT (unknown origin) using 3H-acetyl-CoA as substrate assessed as H3 peptide acetylation preincubated with compound for 15 mins followed by substrate addition and measured after 30 mins by microbeta scintillation counter analysis.
For assay [2], the system named is MCF-10A. Description: Antiproliferative activity against human MCF-10A cells assessed as inhibition of cell growth incubated for 48 hrs by MTT assay. The class given is functional, cell-based. Background: Formazan colour is commonly taken as a measure of viable cells.
Assay [3] deals with MCF-10A. Put plainly: Antiproliferative activity against human MCF-10A cells assessed as inhibition of cell growth at 50 uM incubated for 48 hrs by MTT assay relative to control. The class given is functional.
The next assay deals with PANC-1. Description: Antiproliferative activity against human PANC-1 cells assessed as inhibition of cell growth incubated for 48 hrs by MTT assay. The class given is functional, cell-based. The settings on record: PANC-1, 48 h.
Assay [4] deals with MCF7. Put plainly: Antiproliferative activity against human MCF7 cells assessed as inhibition of cell growth incubated for 48 hrs by MTT assay. The class given is functional, cell-based. The note with it: MCF7, 48 h.
A further assay concerns LNCaP. Description: Antiproliferative activity against human LNCaP cells assessed as inhibition of cell growth incubated for 48 hrs by MTT assay. Format: functional, cell-based.
Assay [5] concerns MCF7. Put plainly: Antitumor activity against human MCF7 cells xenografted in BALB/c nude mouse assessed as tumor growth inhibition at 2 mg/kg, ip measured upto 14 days. The settings on record: MCF7, 336 h, time <= 14 day, read-out: TGI. The class given is functional. (In general: In xenograft studies the graft and the host belong to different species.)
Assay [6] relates to MCF7. Put plainly: Antiproliferative activity against human MCF7 cells assessed as inhibition of cell proliferation incubated for 48 hrs by MTT assay. The class given is functional, cell-based. The note with it: MCF7, 48 h.
Assay [7] concerns MCF7. Put plainly: Downregulation of survivin level in human MCF7 cells at 1 microg/ml incubated for 24 hrs by Western blot analysis. Format: functional, cell-based. The note with it: dose 1.0 µg/ml.
In assay [8] the test system is MCF7. Description: Inhibition of cell migration in human MCF7 cells assessed as reduction in scratch measured after 24 hrs by microscopic analysis. The class given is functional.
Assay [9] relates to MCF7. Description: Induction of apoptosis in human MCF7 cells assessed as upregulation of cleaved PARP level at 1 microg/ml uM incubated for 24 hrs by Western blot analysis. The class given is functional, cell-based. The settings on record: dose 1.0 µg/ml. On the technique in general: In western blotting, separated proteins are transferred to a membrane and probed.
The test system of assay [10] is MCF7. Description: Inhibition of cell invasion in human MCF7 cells measured after 24 hrs by crystal violet staining based microscopic analysis. The class given is functional.
Assay [11] has as its system MCF7. Description: Induction of apoptosis in human MCF7 cells assessed as upregulation of cleaved caspase 3 level at 1 microg/ml incubated for 24 hrs by Western blot analysis. Format: functional, cell-based. The settings on record: dose 1.0 µg/ml.

Active and inactive are the calls of the source. The calls are words filed in the database; no cut-off is given here.

Histone acetyltransferase p300, sequence (Q09472 whole entry): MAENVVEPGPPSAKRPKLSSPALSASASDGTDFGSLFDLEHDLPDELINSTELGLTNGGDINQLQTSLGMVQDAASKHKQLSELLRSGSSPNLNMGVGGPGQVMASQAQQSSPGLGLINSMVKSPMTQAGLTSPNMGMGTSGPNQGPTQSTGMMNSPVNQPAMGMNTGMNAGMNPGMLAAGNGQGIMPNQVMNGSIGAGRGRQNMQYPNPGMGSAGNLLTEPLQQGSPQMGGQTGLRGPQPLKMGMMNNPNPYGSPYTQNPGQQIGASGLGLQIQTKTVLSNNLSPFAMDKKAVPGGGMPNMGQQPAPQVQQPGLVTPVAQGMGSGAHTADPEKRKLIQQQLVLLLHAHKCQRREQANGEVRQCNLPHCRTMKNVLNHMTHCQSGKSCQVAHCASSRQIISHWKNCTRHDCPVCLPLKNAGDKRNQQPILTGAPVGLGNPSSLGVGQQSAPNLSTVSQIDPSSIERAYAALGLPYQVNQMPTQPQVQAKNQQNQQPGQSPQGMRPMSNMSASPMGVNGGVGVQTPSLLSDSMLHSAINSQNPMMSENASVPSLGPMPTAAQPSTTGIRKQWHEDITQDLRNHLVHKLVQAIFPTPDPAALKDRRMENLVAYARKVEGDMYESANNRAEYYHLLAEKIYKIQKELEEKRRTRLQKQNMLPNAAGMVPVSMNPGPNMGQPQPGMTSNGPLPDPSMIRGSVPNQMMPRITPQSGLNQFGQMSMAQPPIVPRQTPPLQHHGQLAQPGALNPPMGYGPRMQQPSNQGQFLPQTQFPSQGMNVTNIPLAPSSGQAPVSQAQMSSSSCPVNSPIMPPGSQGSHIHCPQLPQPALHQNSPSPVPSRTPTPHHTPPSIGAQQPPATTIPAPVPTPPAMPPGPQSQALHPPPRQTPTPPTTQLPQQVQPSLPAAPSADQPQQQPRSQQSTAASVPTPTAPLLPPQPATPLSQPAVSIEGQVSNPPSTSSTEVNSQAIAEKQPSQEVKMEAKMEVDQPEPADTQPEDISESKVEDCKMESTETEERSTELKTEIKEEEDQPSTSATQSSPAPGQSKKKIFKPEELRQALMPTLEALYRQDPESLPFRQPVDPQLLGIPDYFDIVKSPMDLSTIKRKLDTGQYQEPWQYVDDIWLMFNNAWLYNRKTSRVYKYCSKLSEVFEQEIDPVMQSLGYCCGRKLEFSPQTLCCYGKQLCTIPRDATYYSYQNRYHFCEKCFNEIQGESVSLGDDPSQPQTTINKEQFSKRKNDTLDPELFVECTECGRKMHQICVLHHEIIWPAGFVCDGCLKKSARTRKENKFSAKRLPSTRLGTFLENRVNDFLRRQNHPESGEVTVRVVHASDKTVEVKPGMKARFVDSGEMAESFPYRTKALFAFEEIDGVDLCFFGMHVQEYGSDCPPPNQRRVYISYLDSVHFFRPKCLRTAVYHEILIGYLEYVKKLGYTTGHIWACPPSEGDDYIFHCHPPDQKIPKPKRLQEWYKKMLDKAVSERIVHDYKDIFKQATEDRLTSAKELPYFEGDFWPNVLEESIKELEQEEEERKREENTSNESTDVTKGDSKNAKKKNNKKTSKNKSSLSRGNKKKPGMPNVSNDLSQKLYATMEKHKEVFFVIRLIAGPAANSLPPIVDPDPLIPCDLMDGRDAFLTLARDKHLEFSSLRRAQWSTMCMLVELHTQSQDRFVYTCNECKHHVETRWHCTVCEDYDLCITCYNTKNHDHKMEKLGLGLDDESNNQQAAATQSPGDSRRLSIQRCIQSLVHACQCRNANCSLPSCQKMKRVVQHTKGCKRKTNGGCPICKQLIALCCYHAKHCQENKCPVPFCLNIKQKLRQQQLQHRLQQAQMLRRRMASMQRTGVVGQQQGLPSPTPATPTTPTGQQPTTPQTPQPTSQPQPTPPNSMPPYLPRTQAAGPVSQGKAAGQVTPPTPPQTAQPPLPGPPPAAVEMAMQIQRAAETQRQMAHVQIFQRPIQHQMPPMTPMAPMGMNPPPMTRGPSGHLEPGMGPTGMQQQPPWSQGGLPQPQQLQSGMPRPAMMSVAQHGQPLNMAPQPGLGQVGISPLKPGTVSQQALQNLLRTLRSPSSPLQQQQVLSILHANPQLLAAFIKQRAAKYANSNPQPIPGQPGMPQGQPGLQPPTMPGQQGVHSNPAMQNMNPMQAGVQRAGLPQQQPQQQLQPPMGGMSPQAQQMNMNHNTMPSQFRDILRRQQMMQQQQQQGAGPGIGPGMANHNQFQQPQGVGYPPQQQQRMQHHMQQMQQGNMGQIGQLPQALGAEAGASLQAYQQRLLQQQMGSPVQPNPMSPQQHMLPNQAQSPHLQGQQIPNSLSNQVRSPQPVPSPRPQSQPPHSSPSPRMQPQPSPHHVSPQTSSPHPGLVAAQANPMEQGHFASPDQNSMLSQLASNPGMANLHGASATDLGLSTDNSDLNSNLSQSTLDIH

Consider `COc1ccc2cc3[n+](cc2c1OC)CCOc1cc2c(cc1-3)OCO2`, for which the IC50 in assay [1] is 8.01 µM.

As for `COc1cc2cc3[n+](cc2cc1OC)CCN(C(C)=O)c1cc2c(cc1-3)OCO2`, in assay [1], the IC50 was 17.5 µM.

Turning to `COc1cc2cc3[n+](cc2cc1OC)CC(C)COc1cc2c(cc1-3)OCO2` (stereo not drawn), the IC50 is more than 50 µM in the assay on MCF-10A [2]; 33.7 µM in the assay on PANC-1; 29.5 µM in the assay with MCF7 [4]; 40.7 µM with LNCaP; 4.78 µM in [1]. For the same compound, the inhibition at 50 µM with MCF-10A [3] is 77%.

Regarding `C1=CC2C=C3c4cc5c(cc4NCC[N+]3=CC2S1)OCO5` (stereo not drawn), in assay [1], the half-inhibitory concentration (IC50) was found to be 7 µM.

For `COc1ccc2cc3[n+](cc2c1OC)CCNc1cc2c(cc1-3)OCO2`, in assay [1], the IC50 is 6.78 µM.

On to `COc1cc2cc3[n+](cc2cc1OC)CCS(=O)(=O)c1cc2c(cc1-3)OCO2`, for which the half-inhibitory concentration (IC50) in assay [1] was found to be 11.3 µM.

Turning to `COc1cccc2c1C(=O)c1c(O)c3c(c(O)c1C2=O)C[C@@](O)(C(=O)CO)C[C@@H]3O[C@H]1C[C@H](N)[C@H](O)[C@H](C)O1` [DOXORUBICIN], the inhibition in vivo at 2 mg/kg in the assay on MCF7 [5] was determined as 64.3%. The IC50 in the assay with MCF7 [6] came to 2.46 µM. Further, in the assay on MCF7 [7], the result was Active. Besides, the “inhibition (INH)” value in the assay with MCF7 [8] amounted to 62.43%. Moreover, the result in the assay on MCF7 [9] and in the assay with MCF7 [11] was inactive. For the same compound, the inhibition entry in the assay on MCF7 [10] was “Active”.

`COc1cc2cc3[n+](cc2cc1OC)CCNc1cc2c(cc1-3)OCO2`: the concentration for half-maximal inhibition (IC50) in the assay on MCF-10A [2] was more than 50 µM; in the assay with PANC-1, more than 50 µM; with MCF7 [4] it was 36.7 µM; with LNCaP it was more than 50 µM; in assay [1] it was 3.39 µM.

For the compound `COc1cc2cc3[n+](cc2cc1OC)CCCNc1cc2c(cc1-3)OCO2`, in assay [1], the IC50 is 9.69 µM.

For `COc1ccc2cc3[n+](cc2c1OC)CCCOc1cc2c(cc1-3)OCO2`, in assay [1], the IC50 is more than 20 µM.

With `COc1cc2cc3[n+](cc2cc1OC)CCOCCOc1cc2c(cc1-3)OCO2`, the IC50 in assay [1] was determined as 5.87 µM.

`COc1cc2cc3[n+](cc2cc1OC)CCSc1cc2c(cc1-3)OCO2`: the half-inhibitory concentration (IC50) in the assay on MCF-10A [2] is more than 50 µM; in the assay on PANC-1, 49.5 µM; in the assay on MCF7 [4], 34.9 µM; in the assay on LNCaP it was 28.6 µM; in assay [1], 4.65 µM.

For the compound `CNC(=O)Nc1ccc2c(c1)CC[C@@]21OC(=O)N(CC(=O)N(Cc2ccc(F)cc2)[C@@H](C)C(F)(F)F)C1=O` [A-485], the 50% inhibitory concentration (IC50) with PANC-1 was more than 30 µM; with MCF7 [4], more than 30 µM; in the assay with LNCaP it was 1.7 µM.

As for `COc1cc2cc3[n+](cc2cc1OC)CCCCOc1cc2c(cc1-3)OCO2`, the IC50 in assay [1] is more than 20 µM.

As for `C1=CC2C=C3c4cc5c(cc4OCC[N+]3=CC2S1)OCO5` (stereo not drawn), in assay [1], the IC50 was determined as 9.31 µM.

As for `COc1cc2cc3[n+](cc2cc1OC)CCCSc1cc2c(cc1-3)OCO2`, the half-maximal inhibitory concentration (IC50) in [1] was determined as 11.5 µM.

As for `COc1ccc2cc3[n+](cc2c1OC)CCc1c-3oc2ccccc12`, in [1], the IC50 is more than 20 µM.

As for `COc1ccc2cc3[n+](cc2c1OC)CCCNc1cc2c(cc1-3)OCO2`, in [1], the concentration for half-maximal inhibition (IC50) is more than 20 µM.

Take `COc1ccc2cc3[n+](cc2c1OC)CCc1ccsc1-3`: the IC50 in assay [1] was more than 20 µM.

Regarding `COc1cc2cc3[n+](cc2cc1OC)CCCOc1cc2c(cc1-3)OCO2`, the IC50 is more than 50 µM in the assay on MCF-10A [2]; 38.6 µM in the assay on PANC-1; 37.8 µM in the assay on MCF7 [4]; 33.5 µM with LNCaP; 3.69 µM in assay [1].

For the compound `COc1ccc2cc3[n+](cc2c1OC)CCSc1cc2c(cc1-3)OCO2`, in [1], the 50% inhibitory concentration (IC50) came out at 10.3 µM.

As to `COc1ccc2cc3[n+](cc2c1OC)CCc1cc2c(cc1-3)OCO2` [BERBERINE CHLORIDE], the 50% inhibitory concentration (IC50) is more than 50 µM in the assay on MCF-10A [2]; more than 50 µM in the assay with PANC-1; more than 50 µM in the assay on MCF7 [4]; more than 50 µM in the assay on LNCaP; 8.91 µM in assay [1].

For the compound `COc1ccc2cc3[n+](cc2c1OC)CCCSc1cc2c(cc1-3)OCO2`, the concentration for half-maximal inhibition (IC50) in [1] is more than 20 µM.

With `COc1cc2cc3[n+](cc2cc1OC)CCCS(=O)(=O)c1cc2c(cc1-3)OCO2`, the 50% inhibitory concentration (IC50) in [1] was more than 20 µM.

Broadly, the IC50 is the midpoint of a concentration-inhibition curve. As usually defined, the inhibition is the relative decrease from the control value, in per cent.
